In ChEMBL document CHEMBL1255557, “Heterobiaryl and heterobiaryl ether derived M5 positive allosteric modulators” (Bioorg Med Chem Lett, 2010):
Active and inactive are the calls of the source. No cut-off for these calls is given here.

Key:
[1] = target: T1, Muscarinic acetylcholine receptor M5 (Homo sapiens) (UniProt P08912); test: Positive allosteric modulation of muscarinic M5 receptor expressed in CHO cells assessed as effect on acetylcholine-induced intracellular calcium mobilization after 1 hr by FLIPR assay relative to acetylcholine; format: functional, cell-based
T1 sequence (whole entry): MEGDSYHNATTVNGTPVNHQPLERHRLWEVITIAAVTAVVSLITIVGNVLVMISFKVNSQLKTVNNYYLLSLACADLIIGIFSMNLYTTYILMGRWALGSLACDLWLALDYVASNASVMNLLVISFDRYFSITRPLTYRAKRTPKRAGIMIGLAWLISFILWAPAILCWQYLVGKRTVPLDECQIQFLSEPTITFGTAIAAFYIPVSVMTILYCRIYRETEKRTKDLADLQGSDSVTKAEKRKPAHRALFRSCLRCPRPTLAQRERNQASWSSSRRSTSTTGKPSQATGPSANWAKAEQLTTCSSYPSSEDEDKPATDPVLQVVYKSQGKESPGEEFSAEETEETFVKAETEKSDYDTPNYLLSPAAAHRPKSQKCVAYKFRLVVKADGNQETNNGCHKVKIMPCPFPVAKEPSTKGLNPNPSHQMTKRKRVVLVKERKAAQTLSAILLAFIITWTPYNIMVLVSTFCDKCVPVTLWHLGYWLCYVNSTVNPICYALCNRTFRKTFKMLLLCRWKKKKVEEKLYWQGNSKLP

[2] = target: T2, Muscarinic acetylcholine receptor M5 (Homo sapiens, UniProt P08912); test: Positive allosteric modulation of muscarinic M5 receptor expressed in CHO cells assessed as effect on acetylcholine-induced intracellular calcium mobilization after 1 hr by FLIPR assay; format: functional, cell-based
T2 sequence (P08912 whole entry): T1 sequence (whole entry)

[3] = target: T1, Muscarinic acetylcholine receptor M5 (Homo sapiens); test: Positive allosteric modulation of muscarinic M5 receptor expressed in CHO cells assessed as potentiation of acetylcholine-induced intracellular calcium mobilization at 10 uM after 1 hr by FLIPR assay; format: functional, cell-based
[4] = Partition coefficient, log P of the compound; format: physicochemical; settings: octanol/water
[5] = target: T1, Muscarinic acetylcholine receptor M5 (Homo sapiens); test: Positive allosteric modulation of muscarinic M5 receptor expressed in CHO cells assessed as potentiation of acetylcholine-induced intracellular calcium mobilization at 30 uM after 1 hr by FLIPR assay relative to acetylcholine; format: functional, cell-based

SMILES	Activity [3]	also measured
O=C1C(=O)N(Cc2ccc(-c3ccncc3)nc2)c2ccc(OC(F)(F)F)cc21	–	Emax [1]: 50%; EC50 [2]: 4.4 µM
O=C1C(=O)N(Cc2cccc(-c3ccccc3)c2)c2ccc(OC(F)(F)F)cc21	–	EC50 [2]: > 30 µM
O=C1C(=O)N(Cc2ccc(-c3ccccc3)cc2)c2ccc(OCc3ccc(F)cc3)cc21	inactive	–
O=C1C(=O)N(Cc2ccc(-c3ccccc3)cc2)c2ccc(OC(F)(F)F)cc21	–	logP [4]: 4.6; fold change (FC) [5]: 10
O=C1C(=O)N(Cc2ccc(-c3ccccc3)cc2)c2ccc(OCc3ccccc3F)cc21	inactive	–
O=C1C(=O)N(Cc2ccc(-c3ccccc3)cc2)c2ccc(OCC(F)(F)F)cc21	inactive	–
CN(C)CCOc1ccc2c(c1)C(=O)C(=O)N2Cc1ccc(-c2ccccc2)cc1	inactive	–
O=C1C(=O)N(Cc2ccc(-c3ccccc3)cc2)c2ccc(OCCc3ccccc3C(F)(F)F)cc21	inactive	–
CC1CCCN(COc2ccc3c(c2)C(=O)C(=O)N3Cc2ccc(-c3ccccc3)cc2)C1 (stereo unspecified)	inactive	–
O=C1C(=O)N(Cc2ccc(-c3ccccc3)cc2)c2ccc(OCC3CCC3)cc21	inactive	–
O=C1C(=O)N(Cc2ccc3c(c2)OCO3)c2ccc(OC(F)(F)F)cc21	–	Emax [1]: 90%; EC50 [2]: 3.2 µM
O=C1C(=O)N(Cc2cccc(Oc3ccccc3)c2)c2ccc(OC(F)(F)F)cc21	–	EC50 [2]: > 30 µM
CCCCOc1ccc2c(c1)C(=O)C(=O)N2Cc1ccc(-c2ccccc2)cc1	inactive	–
O=C1C(=O)N(Cc2ccc(-c3ccccc3)cc2)c2ccc(OCCN3CCCC3)cc21	inactive	–
O=C1C(=O)N(Cc2ccc(-c3cccnc3)nc2)c2ccc(OC(F)(F)F)cc21	–	logP [4]: 3; Emax [1]: 53%; EC50 [2]: 4 µM
O=C1C(=O)N(Cc2ccc(-c3cccnc3)cn2)c2ccc(OC(F)(F)F)cc21	–	EC50 [2]: > 30 µM
O=C1C(=O)N(Cc2ccc(-c3ccncc3)cn2)c2ccc(OC(F)(F)F)cc21	–	EC50 [2]: > 30 µM
O=C1C(=O)N(Cc2ccc(-c3ccncc3)cc2)c2ccc(OC(F)(F)F)cc21	–	Emax [1]: 60%; EC50 [2]: 2.8 µM
O=C1C(=O)N(Cc2ccc(-c3ccccc3)cc2)c2ccc(OCC3CCCCC3)cc21	inactive	–
COc1ccc(COc2ccc3c(c2)C(=O)C(=O)N3Cc2ccc(-c3ccccc3)cc2)cc1	inactive	–
CCCOc1ccc2c(c1)C(=O)C(=O)N2Cc1ccc(-c2ccccc2)cc1	inactive	–
O=C1C(=O)N(Cc2ccc(Oc3nccs3)cc2)c2ccc(OC(F)(F)F)cc21	–	Emax [1]: 58%; EC50 [2]: 2.8 µM
COc1cccc(Oc2ccc(CN3C(=O)C(=O)c4cc(OC(F)(F)F)ccc43)cc2)n1	–	Emax [1]: 51%; EC50 [2]: 2.2 µM

SMILES	Activity [3]	also measured
CCOc1ccc2c(c1)C(=O)C(=O)N2Cc1ccc(-c2ccccc2)cc1	inactive	–
O=C1C(=O)N(Cc2ccc(-c3ccccc3)cc2F)c2ccc(OC(F)(F)F)cc21	–	Emax [1]: 63%; EC50 [2]: 5.9 µM
O=C1C(=O)N(Cc2ccc(-c3ccccc3)cc2)c2ccc(OCc3ccccc3)cc21	inactive	–
O=C1C(=O)N(Cc2c(F)cc(-c3ccccc3)cc2F)c2ccc(OC(F)(F)F)cc21	–	EC50 [2]: > 30 µM
Cc1ccccc1COc1ccc2c(c1)C(=O)C(=O)N2Cc1ccc(-c2ccccc2)cc1	inactive	–
O=C1C(=O)N(Cc2ccc(-c3ccccc3)cc2)c2ccc(OCc3ccccn3)cc21	inactive	–
O=C1C(=O)N(Cc2ccc(Oc3ccccn3)cc2)c2ccc(OC(F)(F)F)cc21	–	Emax [1]: 46%; EC50 [2]: 3.2 µM
O=C1C(=O)N(Cc2ccc(-c3ccccc3)cc2)c2ccc(Oc3ncccn3)cc21	inactive	–
O=C1C(=O)N(Cc2ccc(Oc3ccccc3)cc2)c2ccc(OC(F)(F)F)cc21	–	fold change (FC) [5]: 5
COc1ccc2c(c1)C(=O)C(=O)N2Cc1ccc(-c2ccccc2)cc1	inactive	–
O=C1C(=O)N(Cc2ccc(Cl)nc2)c2ccc(OC(F)(F)F)cc21	–	Emax [1]: 80%; EC50 [2]: 2.4 µM
O=C1C(=O)N(Cc2ccc(-c3ccccc3)cn2)c2ccc(OC(F)(F)F)cc21	–	Emax [1]: 47%; EC50 [2]: 3.1 µM
O=C1C(=O)N(Cc2ccc(-c3ccccc3)cc2)c2ccc(OCc3ccccc3Cl)cc21	inactive	–
COc1ccccc1COc1ccc2c(c1)C(=O)C(=O)N2Cc1ccc(-c2ccccc2)cc1	inactive	–
O=C1C(=O)N(Cc2ccc(-c3ccccc3)cc2)c2ccc(OCc3cccc(OC(F)(F)F)c3)cc21	inactive	–
O=C1C(=O)N(Cc2ccc(-c3ccccc3)cc2)c2ccc(OCc3cccc(C(F)(F)F)c3)cc21	inactive	–
O=C1C(=O)N(Cc2ccc(-c3ccccc3)cc2)c2ccc(OCc3cccc(F)c3)cc21	inactive	–
O=C1C(=O)N(Cc2ccc(-c3ccccc3)cc2)c2ccc(OCc3ccc(F)cc3F)cc21	inactive	–
O=C1C(=O)N(Cc2ccc(-c3ccccc3)cc2)c2ccc(OCc3c(F)cccc3F)cc21	inactive	–
O=C1C(=O)N(Cc2ccc(-c3ccccc3)cc2)c2ccc(OCc3ccc(C(F)(F)F)cc3)cc21	inactive	–
O=C1C(=O)N(Cc2ccc(-c3ccccc3)cc2)c2ccc(Oc3ccccn3)cc21	inactive	–
O=C1C(=O)N(Cc2ccc(-c3cncnc3)cc2)c2ccc(OC(F)(F)F)cc21	–	Emax [1]: 53%; EC50 [2]: 2.1 µM
O=C1C(=O)N(Cc2ccc(-c3cccnc3)cc2)c2ccc(OC(F)(F)F)cc21	–	Emax [1]: 51%; EC50 [2]: 1.6 µM

Further lines, with some results ahead:

Activity [3]	SMILES	also measured
inactive	COc1ccc(COc2ccc3c(c2)C(=O)C(=O)N3Cc2ccc(-c3ccccc3)cc2)cc1C(F)(F)F	–
inactive	O=C1C(=O)N(Cc2ccc(-c3ccccc3)cc2)c2ccc(OCc3ccncc3)cc21	–
inactive	O=C1C(=O)N(Cc2ccc(-c3ccccc3)cc2)c2ccc(OCCN3CCOCC3)cc21	–
inactive	O=C1C(=O)N(Cc2ccc(-c3ccccc3)cc2)c2ccc(OCc3cc(F)ccc3F)cc21	–
inactive	O=C1C(=O)N(Cc2ccc(-c3ccccc3)cc2)c2ccc(OCc3cccc(Cl)c3)cc21	–
inactive	O=C1C(=O)N(Cc2ccc(-c3ccccc3)cc2)c2ccc(OCc3ccc(Cl)cc3)cc21	–
inactive	O=C1C(=O)N(Cc2ccc(-c3ccccc3)cc2)c2ccc(OCc3cccnc3)cc21	–
inactive	O=C1C(=O)N(Cc2ccc(-c3ccccc3)cc2)c2ccc(OCc3ccccc3C(F)(F)F)cc21	–
inactive	O=C(O)COc1ccc2c(c1)C(=O)C(=O)N2Cc1ccc(-c2ccccc2)cc1	–
inactive	O=C1C(=O)N(Cc2ccc(-c3ccccc3)cc2)c2ccc(OCCc3ccccc3F)cc21	–
inactive	CC(C)COc1ccc2c(c1)C(=O)C(=O)N2Cc1ccc(-c2ccccc2)cc1	–
inactive	COc1cccc(COc2ccc3c(c2)C(=O)C(=O)N3Cc2ccc(-c3ccccc3)cc2)c1	–
inactive	O=C1C(=O)N(Cc2ccc(-c3ccccc3)cc2)c2ccc(OCCc3ccccc3Cl)cc21	–
inactive	O=C1C(=O)N(Cc2ccc(-c3ccccc3)cc2)c2ccc(OCc3ccc(OC(F)(F)F)cc3)cc21	–
inactive	O=C1C(=O)N(Cc2ccc(-c3ccccc3)cc2)c2ccc(OCCC(F)(F)F)cc21	–
inactive	Cc1ccccc1CCOc1ccc2c(c1)C(=O)C(=O)N2Cc1ccc(-c2ccccc2)cc1	–
